Data reported in PMC5464627, “Design of short peptides to block BTLA/HVEM interactions for promoting anticancer T-cell responses” (PLoS ONE, 2017).
Positions of bridges follow the written chain, without caps; N, C: chain ends.

Assays:
[1] = system: BTLA/HVEM interaction (BTLA-Fc coated, HVEM-Fc); assay: Competitive BTLA/HVEM ELISA; assay type: binding, human; conditions: peptide or amino acid at 5, 1 and 0.1 mg/mL, 2 h at 37°C; relative to PBS (0%) and anti-BTLA 7.1 mAb (100%); at least two experiments in triplicate
Description: (§1) The recombinant human BTLA protein used in affinity tests was purchased form Novoprotein (Company product code: C563). For ELISA, recombinant human BTLA-Fc, HVEM-Fc as well as anti-human BTLA (#7.1) blocking monoclonal antibody (mAb) and anti-human HVEM (#11.8) non-blocking mAb were described previously. Anti-HVEM mAb was biotinylated using the Biotin Labeling Kit-NH2 (Abnova, #KA0003), according manufacturer’s instruction.
96-well round bottom plates (medium binding; Greiner Bio-One) were coated with 400 ng/well of recombinant BTLA-Fc protein in PBS (50 μL/well) and incubated overnight at 4°C. Wells were washed twice with PBS-T (phosphate buffer saline with 0.1% Tween-20, pH 7.4) and blocked with 1% milk in PBS-T for 1 hour at 37°C. […] Maximum binding of HVEM to BTLA was controlled by adding 1% milk/PBS-T to negative control wells, whereas maximum inhibition was monitored by adding anti-BTLA 7.1 mAb (0.1 μg/well). Next, the plate was washed and incubated with recombinant HVEM-Fc protein at 400 ng/well in 1% milk/PBS-T for 1 hour at 37°C. Biotinylated anti-HVEM 11.8 antibody was then added (biotinylated preparation diluted at 1/10 000 in 1% milk/PBS-T) and incubated for 1 hour at 37°C. Streptavidin horseradish peroxidase (Dako) was finally added at a 1/8000 dilution in 1% BSA/PBS-T for 30 min at 37°C and detected with TMB (Biorad). The substrate reaction was blocked with 0.2 M H2SO4 and the absorbance was read at 450 nm and 630 nm. […] Statistical analysis of the results was performed using the one-way analysis of variance (one-way ANOVA).

[2] = system: 293T cells expressing BTLA, binding of rhHVEM-Fc; assay: BTLA/HVEM interaction cell line assay (flow cytometry); assay type: cell-based; conditions: 293T cells expressing human BTLA pre-incubated with 5 mg/mL for 1 h at 4°C, then rhHVEM-Fc 8 μg/ml and AF647 anti-human IgG; at least two experiments in triplicate
Method: 293T cells expressing BTLA (generous gift from Dr. C. Krummenacher, University of Pennsylvania, USA) were maintained in culture with RPMI 10% FCS supplemented with 0.2 mg/ml hygromycin B. 2x10^5 293T cells expressing BTLA were incubated with […] 8μg/ml in PBS 0.5% BSA for 30min at 4°C. Cells were then washed and incubated with goat anti-human Fc conjugated with AF647 for 20min at 4°C (Jackson ImmunoResearch, #109-606-170). Inhibition of HVEM-BTLA binding by different peptides was assessed by pre-incubating the cells with the different peptides at 5 mg/ml for 1h at 4°C. BTLA expression was controlled by anti-BTLA APC-conjugated antibody (Biolegend, #344510). Maximum inhibition of binding was determined by adding anti-BTLA7.1 antibody for 1h at 4°C at 2μg/ml before adding […]. Sample acquisition was performed on the Gallios Flow-Cytometer (Beckman Coulter) and data were analyzed using the FlowJo Software (TreeStar).  Fig 7 Blocking capacity of HVEM(23-39) fragment and free amino acids in a cellular assay. 293T cells expressing human BTLA were incubated with peptides or free amino acids (5mg/mL) prior labeling with […] AF647-conjugated anti-human IgG antibody (at least two experiments in triplicate).

[3] = system: recombinant human BTLA protein; assay: Microcolumn affinity test (BTLA-Sepharose, MALDI-MS of fractions); assay type: binding; conditions: for Interaction with BTLA immobilised in microcolumn (in words): BTLA-Sepharose microcolumn, 2 h at 25°C, pH 7.4, MS of elution fraction; for Elution [M+H]+1 (peptide signal in elution fraction = complex with BTLA formed; - = no signal): BTLA immobilised on NHS-Sepharose microcolumn, peptide incubated 2 h at 25°C in NH4HCO3 pH 7.4, eluted with 0.1% TFA, MALDI TOF/TOF
Method: as §1
The immobilization of BTLA protein in a microcolumn was performed using the NHS-activated acid-coupled Sepharose 4B (Sigma Aldrich). BTLA protein was dissolved in 100 μl of coupling buffer (0.2 M NaHCO3, 0.5 M NaCl, pH 8.3) and was added to 0.06 g NHS-activated Sepharose in 100 μl of coupling buffer. The coupling reaction was performed for 1 hour in 25°C and the mixture was transferred into the microcolumn (MoBiTec, Goettingen, Germany). The microcolumn with immobilized protein was washed alternately with 10 ml of solution blocking buffer (0.1 M amino ethanol, 0.5 M NaCl, pH 8.3) and washing buffer (0.1 M CH3COONa, 0.5 M NaCl, pH 4). This step was repeated 4 times. The microcolumn was stored in PBS (pH 7.4).
Peptide affinity assay using NHS-activated Sepharose microcolumn was already described elsewhere. The peptides were added onto BTLA-Sepharose column equilibrated in ammonium hydrogen carbonate (NH4HCO3, pH 7.4) and incubated for 2 h at 25°C with gentle shaking. After this time the unbound peptide was removed and the column was washed with […] NH4HCO3 and 20 ml of H2O. Dissociation of the protein—peptide complex was performed using 0.1% TFA in H2O (2 x 0.5 ml) by 15 minutes. All fractions were analyzed using mass spectrometry (MALDI TOF/TOF™ 5800, AB SCIEX).
Fig 2 Microcolumn affinity test. Microcolumn affinity test results for binding of HVEM(23–39) fragment to BTLA: (A) supernatant, (B) last wash and (C) elution fractions. The MS measurements were done with the use of MALDI TOF/TOF 5800 (ABSciex, Germany). As a matrix α-cyano-4-hydroxycinnamic acid (CHCA, 10 mg/ml, Sigma-Aldrich) was used. The measurements were done in reflector positive mass mode with previous mass calibration with commercial standard peptide mixture (The Peptide Mass Standards Kit for Calibration of AB SCIEX MALDI-TOF™ Instruments).

[4] = Ellman's assay of free thiols; assay type: physicochemical; conditions: for Presence of free thiol groups: DTNB, 0.1 M sodium phosphate pH 7.4, 1 mM EDTA, absorbance at 412 nm
Method: The presence of free thiols was investigated using Ellman’s assay. DTNB (Sigma Aldrich) was first dissolved in reaction buffer (0.1 M sodium phosphate, pH 7.4, containing 1 mM EDTA) at a concentration of 4 mg/ml. Then peptides and recombinant BTLA-Fc, alone or mixed together (ratio 1:1) were added in DTNB reaction buffer. After 15 minutes of incubation, the SH content of protein samples was then assessed by the measurement of absorbance at 412 nm. For each sample, the absorbance value from the blank was subtracted.

[5] = biological target: T1, recombinant human BTLA-Fc (human, UniProt Q7Z6A9 31-157); assay: ELISA; competitive: BTLA-Fc coated at 400 ng/well; peptides in 1% milk/PBS-T 2 h at 37°C; washed; HVEM-Fc 400 ng/well 1 h at 37°C; detected with biotinylated anti-HVEM 11.8 and streptavidin-HRP; percent inhibition relative to anti-BTLA 7.1 mAb (100%) and buffer (0%); conditions: both partners purified
T1 construct: B and T lymphocyte attenuator (BTLA), human, fused to Fc; also called rhBTLA-Fc
T1 sequence (looked up): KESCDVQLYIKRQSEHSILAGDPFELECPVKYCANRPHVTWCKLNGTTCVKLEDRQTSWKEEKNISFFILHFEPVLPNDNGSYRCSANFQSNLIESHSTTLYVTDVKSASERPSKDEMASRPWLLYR

## N[C@@H](CS)C(=O)O [cysteine, reference compound]
[1]
  Inhibition of BTLA/HVEM ligation in ELISA (in words): prevented partially the binding of HVEM
[2]
  Blocking of BTLA/HVEM binding in cellular assay (GMFI, in words): blocked BTLA/HVEM complex formation

## N[C@@H](CSSC[C@H](N)C(=O)O)C(=O)O [cystine, reference compound]
[1]
  Inhibition of BTLA/HVEM ligation in ELISA (in words): the inhibitory properties were not observed

## CSCC[C@H](N)C(=O)O [methionine, reference compound]
[1]
  Inhibition of BTLA/HVEM ligation in ELISA (in words): the inhibitory properties were not observed

## Ac-ELCAGPVTRKVECTYGE-NH2 [Scrambled peptide, scrambled control of HVEM(23–39), Ac-…-NH2, reference compound]
[3]
  Interaction with BTLA immobilised in microcolumn (in words): did not interact with BTLA immobilized in microcolumn
[1]
  Inhibition of BTLA/HVEM ligation in ELISA (in words): has no effect
[4]
  Presence of free thiol groups: contains free thiol groups

## Ac-ELTGTVCEP-NH2 [HVEM(31–39), 9 amino acid-long HVEM fragment 31–39]
[3]
  Elution [M+H]+1 (peptide signal in elution fraction = complex with BTLA formed; - = no signal): 989.3
[1]
  Inhibition of BTLA/HVEM ligation in ELISA (in words): showed a lower percentage of inhibition than the HVEM(23–39)

## Ac-ELTGTVS^37EP-NH2 [HVEM(31–39) C37S, HVEM(31–39) analog with Cys37 replaced by serine]
[1]
  Inhibition of BTLA/HVEM ligation in ELISA (in words): no blocking capacity

## Ac-YRVKEACGELTGTVCEP-NH2 (disulfide 7-15 (inferred); SMILES CC(=O)N[C@@H](Cc1ccc(O)cc1)C(=O)N[C@@H](CCCNC(=N)N)C(=O)N[C@H](C(=O)N[C@@H](CCCCN)C(=O)N[C@@H](CCC(=O)O)C(=O)N[C@@H](C)C(=O)N[C@H]1CSSC[C@@H](C(=O)N[C@@H](CCC(=O)O)C(=O)N2CCC[C@H]2C(N)=O)NC(=O)[C@H](C(C)C)NC(=O)[C@H]([C@@H](C)O)NC(=O)CNC(=O)[C@H]([C@@H](C)O)NC(=O)[C@H](CC(C)C)NC(=O)[C@H](CCC(=O)O)NC(=O)CNC1=O)C(C)C) [HVEM(23–39) (C29-C37), cyclic HVEM(23–39) with disulfide bridge, oxidized cysteines]
[3]
  Elution [M+H]+1 (peptide signal in elution fraction = complex with BTLA formed; - = no signal): 1893.9
  Interaction with BTLA immobilised in microcolumn (in words): interacted with BTLA in affinity test
[1]
  Inhibition of BTLA/HVEM ligation in ELISA (in words): no blocking of BTLA/HVEM interaction was observed

## Ac-YRVKEACGELTGTVCEP-NH2 [HVEM(23–39), HVEM fragment 23–39, Ac-…-NH2, free sulfhydryl groups]
[3]
  Interaction with BTLA immobilised in microcolumn (in words): complex between BTLA and HVEM(23–39) was formed
[1]
  Inhibition of BTLA/HVEM ligation in ELISA (in words): can partially prevent the ligation of HVEM to BTLA, in a dose dependent manner
[4]
  Presence of free thiol groups: observed free thiol groups
[4]; Ellman's assay, pH 7.4, peptide alone, 2 hours, suggests a fraction of the peptide is oxidized
  Concentration of free thiol groups after 2 hours of incubation, peptide alone: lower
[4]; Ellman's assay, pH 7.4, peptide mixed with recombinant BTLA-Fc (ratio 1:1)
  Concentration of free thiol groups over time, peptide incubated with BTLA-Fc: decrease in the concentration of free thiol groups over time, which was more pronounced than in the condition where the peptide was alone
[2]
  Blocking of BTLA/HVEM binding in cellular assay (GMFI, in words): almost no blocking of the BTLA/HVEM binding was observed

## Ac-YRVKEAS^29GELTGTVCEP-NH2 [HVEM(23–39) C29S, HVEM(23–39) analog with Cys29 replaced by serine]
[3]
  Elution [M+H]+1 (peptide signal in elution fraction = complex with BTLA formed; - = no signal): 1879.7

## Ac-YRVKEAY^29GELTGTVCEP-NH2 [HVEM(23–39) C29Y, HVEM(23–39) analog with Cys29 replaced by tyrosine]
[3]
  Elution [M+H]+1 (peptide signal in elution fraction = complex with BTLA formed; - = no signal): 1955.7

## C29A: single alanine-substituted HVEM(23–39) variant, cysteine 29 replaced by alanine (Ac-YRVKEAAGELTGTVCEP-NH2)
[1]
  Inhibition of BTLA/HVEM ligation in ELISA (in words): significant reduction of the inhibition

## C37A: single alanine-substituted HVEM(23–39) variant, cysteine 37 replaced by alanine (Ac-YRVKEACGELTGTVAEP-NH2)
[1]
  Inhibition of BTLA/HVEM ligation in ELISA (in words): significant reduction of the inhibition

B1: HVEM(31–39) (peptide)
peptide: Ac-ELTGTVCEP-NH2
notes: herpes virus entry mediator (HVEM), human, residues 31-39; also called HVEM (31–39) fragment; source: synthetic peptide (SPPS, RP-HPLC purified)
[5]
  binding result: binds

B2: HVEM(23–39) peptide (peptide)
peptide: YRVKEACGELTGTVCEP
modifications: not fully specified; N-terminal acetyl (Ac-); C-terminal amide (-NH2)
notes: herpes virus entry mediator (HVEM), human, residues 23-39 of the CRD1 domain; Linear, with two free sulfhydryl groups; also called HVEM(23–39) fragment; wild-type peptide HVEM(23–39); source: synthetic peptide (SPPS, RP-HPLC purified)
[5]
  binding result: binds
